Test results: PMC2254147, “Novel Triazine JPC-2067-B Inhibits Toxoplasma gondii In Vitro and In Vivo” (PLoS Neglected Tropical Diseases, 2008)
≈ marks a conversion by molar mass, not a printed value. Where two headings read alike, the source gives them in different places.

Experiments:
[1] = Thompson Antimalarial Assay LD50; details: mouse, in vivo; @ Day 6
[2] = ref 4 (superscript at the row head, footnote not given); cited from earlier work
[3] = target: T1, Mav DHFR (Mycobacterium avium, UniProt O30463); assay: Spectrophotometric DHFR assay, Mycobacterium avium-intracellulare DHFR; assay type: biochemical; details: 37°C; (95% confidence limits)
T1 construct: the bacteria were centrifuged, sonicated, and the 100,000 Xg supernate was stored under liquid nitrogen until assay; endogenous in cells; host or cells: M. avium-intracellulare clinical isolate (serovar 4), Indiana University School of Medicine
T1 sequence (O30463 1-181): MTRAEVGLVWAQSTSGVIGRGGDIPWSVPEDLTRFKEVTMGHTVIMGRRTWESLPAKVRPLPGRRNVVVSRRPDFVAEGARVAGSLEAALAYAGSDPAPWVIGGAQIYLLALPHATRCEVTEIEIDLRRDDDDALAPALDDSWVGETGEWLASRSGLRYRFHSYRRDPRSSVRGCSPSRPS
Method: Mycobacterium avium-intracellulare used in these studies was a clinical isolate (serovar 4) from Indiana University School of Medicine, Department of Pathology. The strain was maintained on Lowenstein-Jensen slants (Baxter Scientific) grown at room temperature. To produce enzyme, the organism was grown in Middlebrook 7H-9 liquid medium at 37°C to an OD660 of 0.5 to 0.7, which took several weeks. At harvest, the bacteria were centrifuged, sonicated, and the 100,000 Xg supernate was stored under liquid nitrogen until assay. These supernates contained both DHFR and dihydroopteroate synthetase activity.
(§1) The spectrophotometric assay for DHFR was optimized for temperature and concentration of substrate and cofactor for each enzyme. The standard assay contained Na phosphate buffer pH 7.4 (40.7 mM), 2-mercaptoethanol (8.9 mM), NADPH (0.117 mM), dihydrofolic acid (0.09 mM), KCL (150 mM), and sufficient enzyme to produce a change in OD340 of 0.035/minute at 37°C. The reaction was continuously recorded for 3 minutes. Activity under these conditions was linear with enzyme concentration over a 4-fold range. The low background activity in the absence of dihydrofolic acid was subtracted from all rates.
(§2) DHFR was assayed with several concentrations of inhibitor to produce rates ranging from 1 to 90% of the uninhibited rate. At least three concentrations were required for calculation; most curves contained five concentrations.

[4] = ref 4 (superscript at the row head, footnote not given); cited from earlier work; remark: listed apart in the source
[5] = system: tester strains TA97, TA98, TA100, TA102 and TA1535; assay: Ames Test with and without microsomal activation; details: Tester Strains TA98, TA100, TA1535, TA1537 and TA1538
[6] = target: T2, TgDHFR (Toxoplasma gondii, UniProt Q07422); assay: biochemical; assay type: biochemical
T2 construct: DHFR from T. gondii was isolated directly from RH strain T. gondii grown in culture; endogenous in cells; host or cells: RH strain T. gondii grown on CHO/dhfr- cells
T2 sequence (Q07422 1-610): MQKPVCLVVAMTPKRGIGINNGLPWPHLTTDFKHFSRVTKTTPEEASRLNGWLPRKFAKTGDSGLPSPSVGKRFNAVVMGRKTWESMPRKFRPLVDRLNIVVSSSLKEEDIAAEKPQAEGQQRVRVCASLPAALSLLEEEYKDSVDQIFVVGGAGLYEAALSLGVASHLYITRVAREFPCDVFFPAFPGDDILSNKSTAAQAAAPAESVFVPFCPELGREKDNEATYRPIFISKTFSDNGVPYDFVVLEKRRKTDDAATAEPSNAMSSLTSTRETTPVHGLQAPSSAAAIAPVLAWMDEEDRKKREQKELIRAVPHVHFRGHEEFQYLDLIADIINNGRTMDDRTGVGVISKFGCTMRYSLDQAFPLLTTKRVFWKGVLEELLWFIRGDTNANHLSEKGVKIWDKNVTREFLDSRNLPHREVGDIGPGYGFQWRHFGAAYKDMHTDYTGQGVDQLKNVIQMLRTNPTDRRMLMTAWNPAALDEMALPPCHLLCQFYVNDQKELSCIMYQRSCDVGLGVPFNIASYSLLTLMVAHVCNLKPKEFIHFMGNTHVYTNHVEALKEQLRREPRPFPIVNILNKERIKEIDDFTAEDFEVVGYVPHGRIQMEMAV
Method: DHFR from Pneumocystis carinii was produced as the recombinant enzyme expressed in Escherichia coli. […] Organisms were introduced into a confluent monolayer and harvested when the mammalian cells were lysed. The 100,000× g supernate was stored in liquid nitrogen.
(§3) The spectrophotometric assay for DHFR was optimized for temperature and concentration of substrate and cofactor for each enzyme. […] The reaction was continuously recorded for 3 minutes. […] The low background activity in the absence of dihydrofolic acid was subtracted from all rates.
as §2

[7] = system: P. falciparum; details: ref [4]-[11]; cited from earlier work
[8] = target: T3, Pc DHFR (Pneumocystis carinii, UniProt P16184); assay: Spectrophotometric DHFR assay, Pneumocystis carinii DHFR; assay type: biochemical
T3 construct: made in house; host or cells: Escherichia coli
T3 sequence (P16184 1-206): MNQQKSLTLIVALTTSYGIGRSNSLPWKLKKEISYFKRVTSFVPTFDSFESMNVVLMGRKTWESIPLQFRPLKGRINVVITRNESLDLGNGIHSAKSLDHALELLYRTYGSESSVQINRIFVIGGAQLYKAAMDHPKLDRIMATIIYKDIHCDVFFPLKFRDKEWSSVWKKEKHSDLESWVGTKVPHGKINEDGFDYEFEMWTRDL
From the text: DHFR from Pneumocystis carinii was produced as the recombinant enzyme expressed in Escherichia coli. […] DHFR from T. gondii was isolated directly from RH strain T. gondii grown in culture on Chinese hamster ovary cells lacking DHFR (CHO/dhfr^-, American Type Culture Collection 3952 CL). Organisms were introduced into a confluent monolayer and harvested when the mammalian cells were lysed. The 100,000× g supernate was stored in liquid nitrogen.
as §1, with “Activity under these conditions was linear with enzyme concentration over a 4-fold range.” left out
as §2

[9] = target: T4, Rat liver DHFR (Rattus norvegicus, UniProt Q920D2); assay: Spectrophotometric DHFR assay, rat liver DHFR; assay type: biochemical; details: for IC50: 37°C, (95% confidence limits); for Selectivity for pathogen DHFR (in words): rat liver DHFR versus Pc, Tg, Mav DHFR, Table 1
T4 construct: Rat liver DHFR was prepared from livers of female Sprague-Dawley rats; from tissue; host or cells: liver of female Sprague-Dawley rats
T4 sequence (Q920D2 1-187): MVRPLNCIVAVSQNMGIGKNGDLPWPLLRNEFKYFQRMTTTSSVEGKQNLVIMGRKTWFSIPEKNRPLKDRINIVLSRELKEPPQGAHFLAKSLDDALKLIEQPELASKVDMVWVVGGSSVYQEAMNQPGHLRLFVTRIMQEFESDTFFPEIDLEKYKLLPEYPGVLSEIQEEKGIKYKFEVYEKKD
Method: Rat liver DHFR was prepared from livers of female Sprague-Dawley rats. The 100,000× g supernate was partially purified by ammonium sulfate precipitation; the 50–90% precipitate was re-dissolved and stored in liquid nitrogen.
as §3, §2

[10] = system: P. falciparum strains; details: drug-sensitive and drug-resistant strains; ref [4]-[10]; cited from earlier work
[11] = 42-day toxicology study in Macaca fascicularis; assay type: in vivo
[12] = 42-day toxicology study in CD-1 mice; assay type: in vivo
Method: (§4) A 42-day toxicology study in CD-1 mice at doses up to 98 mg/kg evaluating well-being, weight gain, and histopathology was performed. […] 7.5 mg/kg was established as the NOAEL (No Observed Adverse Effect Level). JPC-2056 and JPC-2067 were assayed in the Ames Test with and without microsomal activation with tester strains TA97, TA98, TA100, TA102 and TA1535.

[13] = system: tester strains TA97, TA98, TA100, TA102 and TA1535; assay: Ames Test with and without microsomal activation
Method: as §4

[14] = 42-day study, doses up to 98 mg/kg

## CC1(C)N=C(N)N=C(N)N1OCCCOc1cc(Cl)c(Cl)cc1Cl [JPC-208-B, 4,6-diamino-1,2-dihydro-2,2-dimethyl-1-[3′(2,4,5-trichlorophenoxy)propyloxy]-1,3,5-triazine]
[1]
  LD50 at 6 day: > 128 mg/kg
[2]
  Oral LD50 Mouse: 3,510 mg/kg
[3]
  IC50: 0.00057 µM
[4]
  Oral LD50 Rat: 1,980 mg/kg
[5]
  Ames w/o Activation: Not Active ^#
  Ames with Activation: Not Active ^#
[6]; 37°C, (95% confidence limits), read-out: Tg DHFR IC50
  IC50: 0.000602 µM
[7]
  Activity in vivo against P. falciparum, greater than that of pyrimethamine: 2 logs
[8]; 37°C, (95% confidence limits), read-out: Pc DHFR IC50
  IC50: 0.000265 µM
[9]
  IC50: 0.00081 µM
  Selectivity for pathogen DHFR (in words): not selective
[10]
  ED50 in vitro against P. falciparum strains: 0.05 ng/mL (≈ 0.127 nM)

## CCc1nc(N)nc(N)c1-c1ccc(Cl)cc1 [JPC-1090-A-1, Pyrimethamine]
[3]
  IC50: 1.2 µM
[8]
  IC50: 6.17 µM
[9]
  IC50: 1.32 µM

## CC1(C)N=C(N)N=C(N)N1c1ccc(Cl)cc1 [JPC-2013-B-1, cycloguanil]
[3]
  IC50: 12.1 µM
[6]
  IC50: 0.41 µM
[8]
  IC50: 8.9 µM
[9]
  IC50: 1.73 µM
  Selectivity for pathogen DHFR (in words): not significantly selective

## CC(C)NC(=N)NC(=N)NOCCCOc1ccc(OC(F)(F)F)cc1Cl [JPC-2056, 1-(3′-(2-chloro-4-trifluoromethoxyphenyloxy)propyloxy)-5-isopropylbiguanide]
[11]; 15 mg/kg for 42 days
  Toxicological findings, Cynomolgous Monkey: Intermittent Loose Stools/Diarrhea 15 mg/kg for 42 days
[11]; 42-day study, 15 mg/kg, resolved upon drug withdrawal
  Findings in Macaca fascicularis at 15 mg/kg: histopathology findings at 15 mg/kg with sproradic episodes of loose stools/diarrhea
[11]; cynomolgus monkey, in vivo, 42-day study, read-out: NOAEL (No Observed Adverse Effect Level)
  NOAEL at 42 day: 7.5 mg/kg
[1]
  LD50 at 6 day: 256 mg/kg
[12]; 98 mg/kg for 42 days
  Toxicological findings, CD-1 Mice: Inhibition of Weight Gain at 98 mg/kg for 42 days
[12]; [14]
  Gross pathology, CD-1 mice: no gross pathology with the exception of a reduction in the rate of weight gain
  Histopathology findings, CD-1 mice: no histopathology findings
[13]
  Ames Test, with and without microsomal activation: No activity
  Ames w/o Activation: Not Active ^*
  Ames with Activation: Not Active ^*

## CC(C)N=C(N)/N=C(\N)NOCCCOc1cc(Cl)c(Cl)cc1Cl.Cl [PS-15]
[7]
  Activity in vivo against P. falciparum, greater than that of pyrimethamine: 2 logs
